Results taken from ChEMBL document CHEMBL4052759, “Discovery of DS79182026: A potent orally active hepcidin production inhibitor” (Bioorg Med Chem Lett, 2017).

Tests used:
[1] = molecular target: Rho-associated protein kinase 2 (Homo sapiens) (UniProt O75116); experiment: Inhibition of ROCK2 (unknown origin) at 0.078 uM relative to control
[2] = molecular target: T1, Serine/threonine-protein kinase 3 (Homo sapiens) (UniProt Q13188); experiment: Inhibition of MST2 (unknown origin) at 0.078 uM relative to control
T1 sequence (whole entry): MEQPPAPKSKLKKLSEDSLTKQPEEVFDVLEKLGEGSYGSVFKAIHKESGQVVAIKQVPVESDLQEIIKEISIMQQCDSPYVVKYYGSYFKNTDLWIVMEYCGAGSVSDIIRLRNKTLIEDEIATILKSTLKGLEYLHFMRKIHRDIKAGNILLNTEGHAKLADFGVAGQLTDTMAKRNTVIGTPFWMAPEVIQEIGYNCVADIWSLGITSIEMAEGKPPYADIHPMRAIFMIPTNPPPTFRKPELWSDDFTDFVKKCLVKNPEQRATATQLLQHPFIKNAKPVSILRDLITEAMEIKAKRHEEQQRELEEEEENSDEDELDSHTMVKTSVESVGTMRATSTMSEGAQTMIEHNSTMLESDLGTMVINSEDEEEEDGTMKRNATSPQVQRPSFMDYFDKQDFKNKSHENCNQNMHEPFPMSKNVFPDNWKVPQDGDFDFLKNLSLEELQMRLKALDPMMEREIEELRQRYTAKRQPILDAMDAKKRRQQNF

[3] = molecular target: Vascular endothelial growth factor receptor 2 (Homo sapiens) (UniProt P35968); experiment: Inhibition of KDR (unknown origin) at 0.078 uM relative to control
[4] = molecular target: Tyrosine-protein kinase Lyn (Homo sapiens) (UniProt P07948); experiment: Inhibition of LYN (unknown origin) at 0.078 uM relative to control
[5] = molecular target: RAC-beta serine/threonine-protein kinase (Homo sapiens) (UniProt P31751); experiment: Inhibition of AKT2 (unknown origin) at 0.49 uM relative to control
[6] = molecular target: Ephrin type-A receptor 4 (Homo sapiens) (UniProt P54764); experiment: Inhibition of EPHA4 (unknown origin) at 0.49 uM relative to control
[7] = molecular target: Ribosomal protein S6 kinase alpha-1 (Homo sapiens) (UniProt Q15418); experiment: Inhibition of RSK1 (unknown origin) at 0.49 uM relative to control
[8] = molecular target: Ribosomal protein S6 kinase alpha-6 (Homo sapiens) (UniProt Q9UK32); experiment: Inhibition of RSK4 (unknown origin) at 0.49 uM relative to control
[9] = molecular target: Mitogen-activated protein kinase 12 (Homo sapiens) (UniProt P53778); experiment: Inhibition of p38-gamma (unknown origin) at 0.49 uM relative to control
[10] = molecular target: Tyrosine-protein kinase Fgr (Homo sapiens) (UniProt P09769); experiment: Inhibition of FGR (unknown origin) at 0.49 uM relative to control
[11] = molecular target: Tyrosine-protein kinase JAK3 (Homo sapiens) (UniProt P52333); experiment: Inhibition of JAK3 (unknown origin) at 0.49 uM relative to control
[12] = molecular target: Serine/threonine-protein kinase DCLK1 (Homo sapiens) (UniProt O15075); experiment: Inhibition of DCAMKL1 (unknown origin) at 0.49 uM relative to control
[13] = molecular target: Protein-tyrosine kinase 2-beta (Homo sapiens) (UniProt Q14289); experiment: Inhibition of PYK2 (unknown origin) at 0.49 uM relative to control
[14] = system: Proto-oncogene tyrosine-protein kinase receptor Ret (Homo sapiens), P07949 [Y791F]; experiment: Inhibition of RET Y791F mutant (unknown origin) at 0.49 uM relative to control
[15] = molecular target: Tyrosine-protein kinase Srms (Homo sapiens) (UniProt Q9H3Y6); experiment: Inhibition of SRM (SRMS) (unknown origin) at 0.49 uM relative to control
Homo sapiens = species: Homo sapiens; experiment: Inhibition of PKA (unknown origin) at 0.45 uM relative to control
[16] = molecular target: T2, Protein kinase C zeta type (Homo sapiens) (UniProt Q05513); experiment: Inhibition of PKC-zeta (unknown origin) at 0.45 uM relative to control
T2 sequence (whole entry): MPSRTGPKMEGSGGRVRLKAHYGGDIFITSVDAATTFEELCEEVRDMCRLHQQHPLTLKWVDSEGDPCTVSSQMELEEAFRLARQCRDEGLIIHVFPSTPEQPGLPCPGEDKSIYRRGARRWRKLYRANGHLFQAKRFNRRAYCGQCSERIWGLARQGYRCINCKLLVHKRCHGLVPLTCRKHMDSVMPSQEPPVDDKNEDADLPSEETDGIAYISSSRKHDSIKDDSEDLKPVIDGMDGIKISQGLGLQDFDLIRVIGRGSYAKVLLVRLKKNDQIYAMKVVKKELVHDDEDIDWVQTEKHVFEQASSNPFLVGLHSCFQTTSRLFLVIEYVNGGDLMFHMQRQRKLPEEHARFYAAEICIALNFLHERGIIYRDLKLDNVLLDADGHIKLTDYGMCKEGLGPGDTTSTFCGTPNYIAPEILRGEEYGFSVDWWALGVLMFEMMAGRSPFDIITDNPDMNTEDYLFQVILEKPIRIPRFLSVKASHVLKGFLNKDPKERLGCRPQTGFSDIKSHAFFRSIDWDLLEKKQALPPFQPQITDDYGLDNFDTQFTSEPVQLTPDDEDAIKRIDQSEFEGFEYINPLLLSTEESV

[17] = molecular target: Ephrin type-A receptor 1 (Homo sapiens) (UniProt P21709); experiment: Inhibition of EPHA1 (unknown origin) at 0.45 uM relative to control
[18] = molecular target: Ephrin type-B receptor 1 (Homo sapiens) (UniProt P54762); experiment: Inhibition of EPHB1 (unknown origin) at 0.45 uM relative to control
[19] = system: Fibroblast growth factor receptor 1 (Homo sapiens), P11362 [V561M]; experiment: Inhibition of FGFR1 V561M mutant (unknown origin) at 0.45 uM relative to control
[20] = molecular target: Calcium/calmodulin-dependent protein kinase type II subunit alpha (Homo sapiens) (UniProt Q9UQM7); experiment: Inhibition of CaMK2a (unknown origin) at 0.45 uM relative to control
[21] = molecular target: Calcium/calmodulin-dependent protein kinase type II subunit gamma (Homo sapiens) (UniProt Q13555); experiment: Inhibition of CaMK2-gamma (unknown origin) at 0.45 uM relative to control
[22] = system: Platelet-derived growth factor receptor alpha (Homo sapiens), P16234 [D842V]; experiment: Inhibition of PDGFRA D842V mutant (unknown origin) at 0.45 uM relative to control
[23] = molecular target: Tyrosine-protein kinase ABL2 (Homo sapiens) (UniProt P42684); experiment: Inhibition of Arg (unknown origin) at 0.45 uM relative to control
[24] = molecular target: Protein kinase C beta (Homo sapiens) (UniProt P05771); experiment: Inhibition of PKC-beta1 (unknown origin) at 0.45 uM relative to control

COC(=O)Nc1noc2cc(-c3c(-c4ccccn4)n[nH]c3C)ccc12
inhibition [1]: -2%
inhibition [2]: 2%
inhibition [3]: 17.3%
inhibition [4]: -0.3%

Cc1[nH]nc(C2CC2)c1-c1ccc2c(NC(=O)C3CC3)noc2c1
inhibition [5]: 3%
inhibition [6]: 2.3%
inhibition [7]: 2.3%
inhibition [8]: -1.3%
inhibition [9]: -2.3%
inhibition [10]: -4%
inhibition [11]: -7.3%
inhibition [12]: 0%
inhibition [13]: 1.3%
inhibition [14]: 0%
inhibition [15]: 2.3%

Cc1n[nH]c(C)c1-c1ccc2c(NC(=O)c3ccc(N4CCN(C)CC4)cc3)n[nH]c2c1
inhibition (Homo sapiens): 3%
inhibition [16]: 7%
inhibition [17]: 21%
inhibition [18]: 6.7%
inhibition [19]: 23.7%
inhibition [20]: 2.7%
inhibition [21]: 3%
inhibition [22]: 79.3%
inhibition [23]: 66.3%
inhibition [24]: 7.7%
